The values below come from US20230107216A1, “PANTETHEINE DERIVATIVES AND USES THEREOF” (Comet Therapeutics, Inc., priority 2018, published 2023).

Assay [1] concerns tyrosine hydroxylase positive mesencephalic neurons injured by 6-OHDA. As to the kind of experiment: Neuroprotective effect on damage induced by 6-OHDA on culture of mesencephalic neurons. In kind it is cell-based. The conditions noted are these: Rattus norvegicus, Neuron, 6-OHDA 15 μM, 48h, read-out: % reversion of TH positive neurons (6-OHDA-mediated degradation of dopaminergic neurons). The method, then: The protective effect of compounds of the present disclosure was determined on 6-OHDA-mediated injury on mesencephalon neuronal cultures.
A female Wistar rat (Janvier; France) of 15 days gestation was terminated by cervical dislocation, the fetuses were removed from the uterus and their brains were harvested and placed in ice-cold medium (Leibovitz's L15 medium, Gibco). Only ventral mesencephalic flexure was used for the cell preparations. The midbrain was dissociated by trypsinization. The reaction was stopped, and the suspension was triturated and centrifuged. The pellet of dissociated cells was resuspended in chemically defined medium consisted of Neurobasal (Gibco, 21103049), containing B27 supplement (Gibco, A3582801) and L-glutamine (Gibco, 25030081), 10 ng/ml (BDNF; Pepro Tech, France, 450-02) and 1 ng/ml (GDNF; Pepro Tech, 450-51).
Viable primary rat embryo mesencephalic cells were counted and seeded on 96-multi-wells plate precoated with poly-L-lysine. Cells were maintained in a humidified incubator at 37° C. in 5% CO2-95% air atmosphere and medium changed on day 2. On day 6, the culture medium was removed and replaced by new media without neurotrophic factors containing the compounds of the present disclosure (50-10 μM) or vehicle (0.1% DMSO). After 1h exposure, injury of mesencephalon neuronal cultures was induced by 6-OHDA (15 μM) for further 48h. A mixture of the growth factors GDNF (1 ng/ml) and BDNF (10 ng/ml) were used as reference compound. On day 8, the tyrosine hydroxylase positive neurons were evaluated. Cultures were fixed 30 min at 4° C. with paraformaldehyde in PBS (4%, Sigma). After, cells were permeabilized with 0.1% Triton X100 for 30 min, saturated with PBS containing 3% of BSA (bovine serum albumin) and incubated 2h with anti-tyrosine hydroxylase antibody (Sigma, 1:10000; clone TH-2) at 1/10000 in PBS containing 0.5% of BSA. Cells were washed three times with PBS containing 0.5% of BSA and incubated 1h with goat anti mouse antibody coupled with AF488 (Invitrogen A11001) diluted at 1/1000 in PBS containing 0.5% of BSA. Finally, nuclei were stained with DAPI (Thermo fisher, D1306) at 1/1000 in PBS containing 0.5% of BSA. After rinsing with PBS, the plate was visualized and examined with Cell Insight HCS (Thermo Scientific) to determine the number of tyrosine hydroxylase positive cells per well.
The results for each well were expressed as a percentage by setting the density of tyrosine hydroxylase positive cells under control conditions to 100%. Then the result for each condition was reported as mean±SEM from 4 independent cultures.
A global analysis of the data was performed using a one-way analysis of variance (ANOVA), followed by Fisher's Protected Least Significant Difference when applicable. The level of significance was set to p<0.05.

For assay [2], the system named is Very long-chain acyl-CoA dehydrogenase (VLCAD) primary fibroblasts GM17475. The assay can be described thus: NADP+/NADPH (NADP/NADPH-Glo), VLCAD fibroblasts GM17475. In kind it is cell-based. The conditions noted are these: Homo sapiens, Fibroblast, VLCAD GM17475 P10, assay condition A (10 mM glucose, 2 mM L-glutamine, 1 mM pyruvate, 10% FBS), 24h, read-out: Increase in Total NADP+ + NADPH. On the procedure: Primary adherent fibroblasts were cultured in minimum essential medium (MEM) (Gibco, 25030081) supplemented with 2 mM L-Glutamine (Gibco, 25030081), 15% fetal bovine serum (FBS) (Gibco, 26400044) and 1% penicillin/streptomycin (Gibco, 5140122) at 37° C. and 5% CO2. Cells were collected for either passaging or experiment at ˜70-80% confluence. Cells were obtained by trypsinization and seeded in cell culture microplates either white plate (Thermo Fisher Scientific, 152028) for luminescent measurement or black plate (Thermo Fisher Scientific, 165305) for fluorescent based read out for different assays listed below. Cells were obtained by trypsinization and […] were seeded and allowed to adhere for 16-18 hours to have confluency around 70-80% in the cell well with culture media. After 24 hours prior to measurements (37° C., 5% CO2) media was changed to Dulbecco's Modified Eagle Medium (DMEM, Agilent Seahorse cat #103575-100) with the appropriate supplements as stated below.
Primary fibroblasts assayed were Propionic Acidemia (PA) (GM03590 Coriell Institute for Medical Research, Tsi 6337 Trans-Hit Bio), Methylmalonic Acidemia (MMA) (Tsi 5224 Trans-Hit Bio), Subnormal activation of pyruvate dehydrogenase complex (PDH) (GM01503 Coriell Institute for Medical Research), Very long-chain acyl-CoA dehydrogenase (VLCAD) (GM17475), Leigh Syndrome (LS) (GM03672, GM13411 Coriell Institute for Medical Research), Pyruvate Carboxylase Deficiency (PC) (GM00444 Coriell Institute for Medical Research). 10 μM of Compounds were added for 2 hours in PA, MMA lines and for 24h for the other fibroblast lines.
Assay was performed according to manufacturer instructions (NADP+/NADPH-Glo Assay Promega, G9082). Assay required a plate for total measurement of NADP+/NADPH and a plate for individual measurement of NADP+ or NADPH. For every assay a 12-point standard curve is prepared ranging from 400 nM to 0.625 nM. Media is removed and replaced with 50 μl of PBS for both assays.
For individual NADP+/NADPH measurements, 50 μl of 1% DTAB (Sigma, D5047) (cell lysis reagent) in 0.2N NaOH was added to the plates and 100 μl of lysate was split into two plates with 50 μl each from which ratio of NADP/NADPH can be calculated. 25 μl of 0.4N HCl were added to the NADP+ plates and both NADP+ and NADPH plates were heated at 60° C. for 15 minutes. The acid and heat treatment destroyed NADPH allowing individual NADP+ measurements while heating in basic conditions destroys NADP+ allowing individual NADPH measurement. After 15 minutes plates were allowed to come to room temperature and Trizma base (Sigma, T1699) was added to the NADP+ plates to neutralize the acid and HCl Trizma hydrochloride (Sigma, T2694) was added to the NADPH plates. The NADNADPH glo reagent was prepared by adding 125 μl of NAD cycling substrate, 125 μl of reductase, 125 μl of reductase substrate, 125 μl NAD cycling enzyme to a total of the 25 ml of NAD GLO reagent. 1:1 ratio of total volume of reagent was added to the individual NADP+, NADPH measurements (total 100 μl) and 50 μl were added for the total NAD/NADPH measurements. Luminescence was measured for 30-60 minutes within the linear range.
A total dead cell count was performed as described in Example 817 and only alive cells were used for analysis.

The subject of assay [3] is Venular Endothelial cells (HUVEC) (4H system). The assay can be described thus: BioMAP 4H system (IL-4 and histamine). Type of assay: cell-based, human. The conditions noted are these: procedure of Example 826.
Assay [4] deals with Peripheral blood mononuclear cells co-cultured with B-cells (BT system). The assay can be described thus: cells. The conditions noted are these: Homo sapiens, 72 h.
The mark [5] stands for this setting: Homo sapiens, HUVEC, 24 h, 10 uM, read-out: % decrease in VEGFRII.

Where two headings read alike, the source gives them in different places. Some results are limits rather than exact numbers.

`C[C@@H](O)CC(=O)SCCNC(=O)CCNC(=O)[C@H](O)C(C)(C)CO` [Compound 38, S-2-{3-[(R)-2,4-dihydroxy-3,3-dimethylbutyrylamino]propionylamino} ethyl (R)-3-hydroxybutanethioate]: the inhibition at 10 µM in assay [1] is no less than 30%.

As for `C[C@@H](O)CC(=O)CC(=O)SCCNC(=O)CCNC(=O)[C@H](O)C(C)(C)CO` [Compound 42, (2R)-2,4-dihydroxy-N-[2-[(2-[[(5R)-5-hydroxy-3-oxohexanoyl]sulfanyl]ethyl)carbamoyl]ethyl]-3,3-dimethylbutanamide], the inhibition at 50 µM in assay [1] was no less than 30%. The activation at 10 µM in assay [2] is no less than 10%. Besides, the “% decrease in Eotaxin-3” value in assay [3] (1 uM) was no less than 10%. In assay [3] (10 uM), the “% increase in MCP-1” value is reported as no less than 10% and the “% increase in VEGRII” value was no less than 10%. The inhibition at 10 µM in assay [3] (Homo sapiens, HUVEC, 24 h, 10 uM, read-out: % decrease in E-Selectin) was no less than 10%.

For `CC(C)(COC(=O)OCC[N+](C)(C)C)[C@@H](O)C(=O)NCCC(=O)NCCSC(=O)CCC(=O)O` [Compound 116, [2-([[(3R)-3-[[2-([2-[(3-carboxypropanoyl)sulfanyl]ethyl]carbamoyl)ethyl]carbamoyl]-3-hydroxy-2,2-dimethylpropoxy]carbonyl]oxy)ethyl]trimethylazanium], the inhibition at 10 µM in assay [1] was no less than 30%.

In the case of `CC(=O)OCC(C)(C)[C@@H](O)C(=O)NCCC(=O)NCCSC(=O)CC(=O)CCC(=O)O` [Compound 140, 6-[(2-[3-[(2R)-4-(acetyloxy)-2-hydroxy-3,3-dimethylbutanamido]propanamido]ethyl)sulfanyl]-4,6-dioxohexanoic acid], in assay [1], the inhibition at 50 µM was no less than 30%. In assay [2], the activation at 10 µM is no less than 10%.

Take `CC(C)(CO)[C@@H](O)C(=O)NCCC(=O)NCCSC(=O)CCCN` [Compound 370, (2R)—N-[2-([2-[(4-aminobutanoyl)sulfanyl]ethyl]carbamoyl)ethyl]-2,4-dihydroxy-3,3-dimethylbutanamide]: the inhibition at 50 µM in assay [1] was no less than 30%.

Consider `CC(C)(CO)[C@@H](O)C(=O)NCCC(=O)NCCSC(=O)[C@@H](N)Cc1ccc(O)c(O)c1` [Compound 371, (2R)—N-[2-[(2-[[(2S)-2-amino-3-(3,4-dihydroxyphenyl)propanoyl]sulfanyl]ethyl)carbamoyl]ethyl]-2,4-dihydroxy-3,3-dimethylbutanamide], for which, in assay [1], the inhibition at 50 µM was no less than 30%. Further, the inhibition at 10 µM in assay [3] (setting [5]) is no less than 10%; in assay [4] (read-out: % decrease in sIL-17), no less than 20%.

Take `CC(=O)SCCNC(=O)CCNC(=O)[C@H](O)C(C)(C)COC(=O)[C@@H](N)Cc1ccc(O)c(O)c1` [Compound 498, (3R)-3-[(2-[[2-(acetylsulfanyl)ethyl]carbamoyl]ethyl)carbamoyl]-3-hydroxy-2,2-dimethylpropyl (2S)-2-amino-3-(3,4-dihydroxyphenyl)propanoate]: the inhibition at 50 µM in assay [1] was no less than 30%. In addition, the inhibition at 1 µM in assay [3] (Homo sapiens, HUVEC, 24 h, 1 uM, read-out: % decrease in E-Selectin) was no less than 10%. The inhibition at 10 µM in assay [3] (setting [5]) is no less than 10%. Moreover, in assay [4] (read-out: % increase in sIL-6), the activation at 10 µM is no less than 10%.

Regarding `CC(=O)SCCNC(=O)CCNC(=O)[C@H](O)C(C)(C)COC(=O)CN` [Compound 560, (3R)-3-[(2-[[2-(acetylsulfanyl)ethyl]carbamoyl]ethyl)carbamoyl]-3-hydroxy-2,2-dimethylpropyl 2-aminoacetate], the inhibition at 10 µM in assay [1] is no less than 30%.
